≈ marks a conversion by molar mass, not a printed value. Values belong to the compound of their own block, whether it stands above or below them.
Key:
Staphylococcus aureus [1] = test: Antibacterial activity against methicillin-resistant Staphylococcus aureus after 24 hrs by microbroth dilution method; type: functional
Bacillus mycoides = test: Antibacterial activity against Bacillus mycoides FSB 1 after 18 to 24 hrs by microdilution method; type: functional
Bacillus subtilis = test: Antibacterial activity against Bacillus subtilis FSB 2 after 18 to 24 hrs by microdilution method; type: functional
Micrococcus luteus = test: Antibacterial activity against Micrococcus lysodeikticus ATCC 4698 after 18 to 24 hrs by microdilution method; type: functional
Staphylococcus aureus [2] = test: Antibacterial activity against Staphylococcus aureus ATCC 25923 after 18 to 24 hrs by microdilution method; type: functional
Staphylococcus aureus [3] = test: Antibacterial activity against Staphylococcus aureus FSB 30 after 18 to 24 hrs by microdilution method; type: functional
Azotobacter chroococcum = test: Antibacterial activity against Azotobacter chroococcum FSB 14 after 18 to 24 hrs by microdilution method; type: functional
Enterobacter cloacae = test: Antibacterial activity against Enterobacter cloacae FSB 22 after 18 to 24 hrs by microdilution method; type: functional
[4] = system: Pectobacterium carotovorum; test: Antibacterial activity against Erwinia carotovora FSB 31 after 18 to 24 hrs by microdilution method; type: functional
Escherichia coli [5] = test: Antibacterial activity against Escherichia coli ATCC 25922 after 18 to 24 hrs by microdilution method; type: functional
Klebsiella pneumoniae = test: Antibacterial activity against Klebsiella pneumoniae FSB 26 after 18 to 24 hrs by microdilution method; type: functional
Pseudomonas fluorescens = test: Antibacterial activity against Pseudomonas fluorescens FSB 28 after 18 to 24 hrs by microdilution method; type: functional
Pseudomonas syringae = test: Antibacterial activity against Pseudomonas glycinea FSB 40 after 18 to 24 hrs by microdilution method; type: functional, Pseudomonas savastanoi pv. glycinea
[6] = system: Pseudomonas savastanoi pv. phaseolicola; test: Antibacterial activity against Pseudomonas phaseolicola FSB 29 after 18 to 24 hrs by microdilution method; type: functional
[7] = Antioxidant activity assessed as DPPH free radical scavenging activity after 30 to 60 mins by UV-vis spectrophotometric analysis; type: functional
[8] = Antioxidant activity assessed as DPPH free radical scavenging activity; type: functional
Staphylococcus aureus [9] = test: Antibacterial activity against Staphylococcus aureus by turbidity assay; type: functional
Bacillus cereus = test: Antibacterial activity against Bacillus cereus by turbidity assay; type: functional
Escherichia coli [10] = test: Antibacterial activity against Escherichia coli by turbidity assay; type: functional
Proteus vulgaris = test: Antibacterial activity against Proteus vulgaris by turbidity assay; type: functional
Staphylococcus aureus [11] = test: Antibacterial activity against Staphylococcus aureus; type: functional
Enterococcus faecalis = test: Antibacterial activity against Enterococcus faecalis; type: functional
Escherichia coli [12] = test: Antibacterial activity against Escherichia coli after 16 hrs by broth microdilution method; type: functional
Staphylococcus aureus [13] = test: Antibacterial activity against Staphylococcus aureus after 16 hrs by broth microdilution method; type: functional
Escherichia coli [14] = test: Antibacterial activity against Escherichia coli; type: functional
Staphylococcus aureus [15] = test: Bactericidal activity against Staphylococcus aureus ATCC 29213 incubated for 24 hrs by serial dilution method; type: functional
Staphylococcus aureus [16] = test: Antibacterial activity against Staphylococcus aureus ATCC 29213 assessed as inhibition of bacterial growth at 25 g/L incubated for 24 hrs by serial dilution method relative to cntrol; type: functional; settings: ATCC 29213, 24 h, read-out: GI
Escherichia coli [17] = test: Antibacterial activity against Escherichia coli K-12 MG1655 assessed as bacterial growth inhibition after 24 hrs by serial dilutoin method; type: functional; settings: K-12 substr. MG1655, 24 h
[18] = Antioxidant activity assessed as DPPH free radical scavenging activity incubated for 30 min by UV-vis spectrophotometric analysis; type: functional
[19] = Antioxidant activity assessed as DPPH free radical scavenging activity incubated for 30 mins in dark condition; type: functional
Escherichia coli [20] = test: Antibacterial activity against Escherichia coli KCTC 1924 after 20 to 36 hrs by disc diffusion method; type: functional
Staphylococcus aureus [21] = test: Antibacterial activity against Staphylococcus aureus KCTC 1916 after 20 to 36 hrs by disc diffusion method; type: functional
Staphylococcus aureus [22] = test: Bactericidal activity against Staphylococcus aureus incubated for 24 hrs measured every 30 mins by spectrophotometric analysis; type: functional

Compound: COc1cc(/C=C/c2cc(/C=C/c3ccc(OCC(=O)Nc4cc(Cl)cc(Cl)c4)c(OC)c3)[nH]n2)ccc1OCC(=O)Nc1cc(Cl)cc(Cl)c1
MIC (Staphylococcus aureus [1]): 10 to 20 µg/mL (≈ 13 to 26 µM)

MIC (Bacillus mycoides): 3.9 to 31.2 µg/mL (≈ 12 to 95.6 µM) | MIC (Bacillus subtilis): 3.9 to 31.2 µg/mL (≈ 12 to 95.6 µM) | MIC (Micrococcus luteus): 3.9 to 31.2 µg/mL (≈ 12 to 95.6 µM) | MIC (Staphylococcus aureus [2]): 3.9 to 31.2 µg/mL (≈ 12 to 95.6 µM) | MIC (Staphylococcus aureus [3]): 3.9 to 31.2 µg/mL (≈ 12 to 95.6 µM) | MIC (Azotobacter chroococcum): 3.9 to 31.2 µg/mL (≈ 12 to 95.6 µM) | MIC (Enterobacter cloacae): 3.9 to 31.2 µg/mL (≈ 12 to 95.6 µM) | MIC [4]: 3.9 to 31.2 µg/mL (≈ 12 to 95.6 µM) | MIC (Escherichia coli [5]): 3.9 to 31.2 µg/mL (≈ 12 to 95.6 µM) | MIC (Klebsiella pneumoniae): 3.9 to 31.2 µg/mL (≈ 12 to 95.6 µM) | MIC (Pseudomonas fluorescens): 3.9 to 31.2 µg/mL (≈ 12 to 95.6 µM) | MIC (Pseudomonas syringae): 3.9 to 31.2 µg/mL (≈ 12 to 95.6 µM) | MIC [6]: 3.9 to 31.2 µg/mL (≈ 12 to 95.6 µM) | IC50 [7]: 26 µM
Compound: CC(Nc1ccc([N+](=O)[O-])cc1)c1c(O)c2ccccc2oc1=O (stereo not drawn)

IC50 [8]: 28 µg/mL (≈ 37.2 µM) | MIC (Staphylococcus aureus [9]): 7.81 to 31.2 µg/mL (≈ 10.4 to 41.5 µM) | MIC (Bacillus cereus): 7.81 to 31.2 µg/mL (≈ 10.4 to 41.5 µM) | MIC (Escherichia coli [10]): 7.81 to 31.2 µg/mL (≈ 10.4 to 41.5 µM) | MIC (Proteus vulgaris): 7.81 to 31.2 µg/mL (≈ 10.4 to 41.5 µM)
Compound: COc1c2cc(C)cc1n1cc(ccc3cn(c4cc(C)cc(c4OC)n4cc(ccc5cn2c2ccccc52)c2ccccc24)c2ccccc32)c2ccccc21

Compound: COc1ccccc1NC(=O)COc1ccc(/C=C/c2cc(/C=C/c3ccc(OCC(=O)Nc4ccccc4OC)c(OC)c3)[nH]n2)cc1OC
MIC (Staphylococcus aureus [1]): 10 to 20 µg/mL (≈ 14.5 to 29 µM)

EC50 [8]: 13.8 µg/mL (≈ 38.9 µM) | MIC (Staphylococcus aureus [11]): 32 to 128 µg/mL (≈ 90.3 to 361 µM) | MIC (Enterococcus faecalis): 32 to 128 µg/mL (≈ 90.3 to 361 µM)
Compound: O=C(/C=C/c1ccc(O)c(O)c1)O[C@@H]1C[C@](O)(C(=O)O)C[C@@H](O)[C@H]1O [CHLOROGENIC ACID]

EC50 [8]: 13.4 µg/mL (≈ 37.8 µM)
Compound: O=C(/C=C/c1ccc(O)c(O)c1)O[C@@H]1C[C@@](O)(C(=O)O)C[C@@H](O)[C@@H]1O

Compound: C=CCc1ccc(O)c(OC)c1 [EUGENOL]
MIC (Escherichia coli [12]): 2.5 µg/mL (≈ 15.2 µM) | MIC (Staphylococcus aureus [13]): 2.5 µg/mL (≈ 15.2 µM)

IC50 [8]: 78.74 µg/mL (≈ 196 µM) | MIC (Staphylococcus aureus [11]): 10.5 µg/mL (≈ 26.2 µM) | MIC (Escherichia coli [14]): 9.5 µg/mL (≈ 23.7 µM)
Compound: COc1cccc2c1OCC(c1nnn(Cc3cn(Cc4ccccc4)nn3)n1)=C2

Compound: COc1cc(N)ccc1O
MBC99 (Staphylococcus aureus [15]): 10 mM (≈ 1390 µg/mL) | inhibition of growth at 25000 µg/mL (Staphylococcus aureus [16]): 93%

MIC (Escherichia coli [17]): 250 µg/mL (≈ 694 µM) | IC50 [18]: 0.4 µg/mL (≈ 1.11 µM)
Compound: O=C(/C=C/c1ccc(O)c(O)c1)O[C@H](Cc1ccc(O)c(O)c1)C(=O)O [ROSMARINIC ACID]

IC50 [19]: 0.679 µg/mL (≈ 1.13 µM)
Compound: COc1cc(C2CC(C(=NNc3ccc(C)cc3)C3=NC(=S)NC(c4ccc(O)c(OC)c4)C3)=NC(=S)N2)ccc1O (stereo not drawn)

Compound: COc1cc(/C=C/c2cc(/C=C/c3ccc(OCC(=O)NC45CC6CC(CC(C6)C4)C5)c(OC)c3)[nH]n2)ccc1OCC(=O)NC12CC3CC(CC(C3)C1)C2
MIC (Staphylococcus aureus [1]): 10 to 20 µg/mL (≈ 13.4 to 26.8 µM)

MIC (Bacillus mycoides): 3.9 to 7.8 µg/mL (≈ 13.2 to 26.4 µM) | MIC (Bacillus subtilis): 3.9 to 7.8 µg/mL (≈ 13.2 to 26.4 µM) | MIC (Micrococcus luteus): 3.9 to 7.8 µg/mL (≈ 13.2 to 26.4 µM) | MIC (Staphylococcus aureus [2]): 3.9 to 7.8 µg/mL (≈ 13.2 to 26.4 µM) | MIC (Staphylococcus aureus [3]): 3.9 to 7.8 µg/mL (≈ 13.2 to 26.4 µM) | MIC (Azotobacter chroococcum): 3.9 to 7.8 µg/mL (≈ 13.2 to 26.4 µM) | MIC (Enterobacter cloacae): 3.9 to 7.8 µg/mL (≈ 13.2 to 26.4 µM) | MIC [4]: 3.9 to 7.8 µg/mL (≈ 13.2 to 26.4 µM) | MIC (Escherichia coli [5]): 3.9 to 7.8 µg/mL (≈ 13.2 to 26.4 µM) | MIC (Klebsiella pneumoniae): 3.9 to 7.8 µg/mL (≈ 13.2 to 26.4 µM) | MIC (Pseudomonas fluorescens): 3.9 to 7.8 µg/mL (≈ 13.2 to 26.4 µM) | MIC (Pseudomonas syringae): 3.9 to 7.8 µg/mL (≈ 13.2 to 26.4 µM) | MIC [6]: 3.9 to 7.8 µg/mL (≈ 13.2 to 26.4 µM) | IC50 [7]: 94 µM
Compound: Cc1ccc(NC(C)c2c(O)c3ccccc3oc2=O)cc1 (stereo not drawn)

MIC (Escherichia coli [12]): 2.5 µg/mL (≈ 16.6 µM) | MIC (Staphylococcus aureus [13]): 2.5 µg/mL (≈ 16.6 µM)
Compound: Cc1ccc(C(C)C)c(O)c1 [THYMOL]

EC50 [18]: 3 µg/mL (≈ 10.8 µM) | MIC (Escherichia coli [20]): 8.71 µg/mL (≈ 31.4 µM) | MIC (Staphylococcus aureus [21]): 7.32 µg/mL (≈ 26.4 µM)
Compound: Oc1ccc2ccccc2c1-c1c[nH]c2ccc(F)cc12

IC50 [8]: 4.1 µg/mL (≈ 33 µM)
Compound: COc1ccccc1O [GUAIACOL]
MBC (Staphylococcus aureus [22]): ≥ 15 mM

Compound: COc1cc(/C=C/c2cc(/C=C/c3ccc(OCC(=O)Nc4ccccc4C)c(OC)c3)[nH]n2)ccc1OCC(=O)Nc1ccccc1C
MIC (Staphylococcus aureus [1]): 10 to 20 µg/mL (≈ 15.2 to 30.4 µM)
